PubChem BioAssay AID248 (DTP/NCI, 2004)
Where “and” joins values, the source holds several entries; their conditions need not be identical. Identical values can stand only once. Inconclusive results and toxic doses are left out. Cut-off read from the data, not from the text of the source: active = T/C of 150% or more; inactive = T/C below 125%.

Tested on: L1210 leukemia ip in BDF1 mice, survival T/C
Assay: NCI In Vivo Anticancer Drug Screen. Data for tumor model L1210 Leukemia (intraperitoneal) in B6D2F1 (BDF1) mice
Settings: higher = longer survival
Outline: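 Value reflects the ratio of survival in compound-treated mice to survival in vehicle-treated controls, with both groups carrying the same transplanted tumor.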

[1] = endpoint: mean survival time, dose: 50.0 mg/kg/injection, schedule: Q01DX009 (ip), vehicle: saline
[2] = endpoint: mean survival time, dose: 100.0 mg/kg/injection, schedule: Q01DX009 (ip), vehicle: saline
[3] = endpoint: mean survival time, dose: 200.0 mg/kg/injection, schedule: Q01DX009 (ip), vehicle: saline
[4] = endpoint: mean survival time, dose: 100.0 mg/kg/injection, schedule: Q01DX001 (ip), vehicle: saline
[5] = endpoint: mean survival time, dose: 200.0 mg/kg/injection, schedule: Q01DX001 (ip), vehicle: saline
[6] = endpoint: mean survival time, dose: 400.0 mg/kg/injection, schedule: Q01DX001 (ip), vehicle: saline

Measured: T/C

CSc1ncnc2nc[nH]c12
inactive: endpoint: mean survival time, dose: 1.5 mg/kg/injection, schedule: Q01DX Z (ip), vehicle: saline 95 % of control | endpoint: mean survival time, dose: 3.0 mg/kg/injection, schedule: Q01DX Z (ip), vehicle: saline 95 % of control | endpoint: mean survival time, dose: 6.0 mg/kg/injection, schedule: Q01DX Z (ip), vehicle: saline 103 % of control | endpoint: mean survival time, dose: 12.0 mg/kg/injection, schedule: Q01DX Z (ip), vehicle: saline 95 % of control | endpoint: mean survival time, dose: 12.5 mg/kg/injection, schedule: Q#A X Z (ip), vehicle: saline 108 % of control | endpoint: mean survival time, dose: 25.0 mg/kg/injection, schedule: Q01DX006 (iv), vehicle: saline 103 % of control | endpoint: mean survival time, dose: 25.0 mg/kg/injection, schedule: Q01DX009 (ip), vehicle: saline 97 % of control | endpoint: mean survival time, dose: 25.0 mg/kg/injection, schedule: Q01DX010 (ip), vehicle: saline 92 % of control | endpoint: mean survival time, dose: 25.0 mg/kg/injection, schedule: Q01DX Z (im), vehicle: methylcellulose (MC) 94 % of control | endpoint: mean survival time, dose: 25.0 mg/kg/injection, schedule: Q01DX Z (ip), vehicle: saline 101 % of control | endpoint: mean survival time, dose: 25.0 mg/kg/injection, schedule: Q01DX Z (sc), vehicle: methylcellulose (MC) 117 % of control | endpoint: mean survival time, dose: 25.0 mg/kg/injection, schedule: Q#A X Z (ip), vehicle: saline 103 % of control | endpoint: mean survival time, dose: 30.0 mg/kg/injection, schedule: Q01DX015 (ip), vehicle: carboxymethylcellulose (CMC) 114 % of control | endpoint: mean survival time, dose: 45.0 mg/kg/injection, schedule: Q01DX015 (ip), vehicle: carboxymethylcellulose (CMC) 104 % of control | endpoint: mean survival time, dose: 50.0 mg/kg/injection, schedule: Q01DX006 (iv), vehicle: saline 100 % of control | [1] 102 % of control and 104 % of control | endpoint: mean survival time, dose: 50.0 mg/kg/injection, schedule: Q01DX010 (ip), vehicle: saline 89 % of control | endpoint: mean survival time, dose: 50.0 mg/kg/injection, schedule: Q01DX Z (im), vehicle: methylcellulose (MC) 107 % of control | endpoint: mean survival time, dose: 50.0 mg/kg/injection, schedule: Q01DX Z (ip), vehicle: saline 105 % of control | endpoint: mean survival time, dose: 50.0 mg/kg/injection, schedule: Q01DX Z (sc), vehicle: methylcellulose (MC) 96 % of control | endpoint: mean survival time, dose: 50.0 mg/kg/injection, schedule: Q#A X Z (ip), vehicle: saline 112 % of control | endpoint: mean survival time, dose: 60.0 mg/kg/injection, schedule: Q01DX015 (ip), vehicle: carboxymethylcellulose (CMC) 114 % of control | endpoint: mean survival time, dose: 75.0 mg/kg/injection, schedule: Q01DX015 (ip), vehicle: carboxymethylcellulose (CMC) 108 % of control | endpoint: mean survival time, dose: 75.0 mg/kg/injection, schedule: Q03DX Z (ip), vehicle: saline 100 % of control | endpoint: mean survival time, dose: 90.0 mg/kg/injection, schedule: Q01DX015 (ip), vehicle: carboxymethylcellulose (CMC) 109 % of control | endpoint: mean survival time, dose: 100.0 mg/kg/injection, schedule: Q01DX006 (iv), vehicle: saline 108 % of control | [2] 102 % of control and 103 % of control | endpoint: mean survival time, dose: 100.0 mg/kg/injection, schedule: Q01DX010 (ip), vehicle: saline 95 % of control and 87 % of control | endpoint: mean survival time, dose: 100.0 mg/kg/injection, schedule: Q01DX Z (im), vehicle: methylcellulose (MC) 89 % of control | endpoint: mean survival time, dose: 100.0 mg/kg/injection, schedule: Q01DX Z (ip), vehicle: saline 111 % of control | endpoint: mean survival time, dose: 100.0 mg/kg/injection, schedule: Q01DX Z (sc), vehicle: methylcellulose (MC) 113 % of control | endpoint: mean survival time, dose: 120.0 mg/kg/injection, schedule: Q01DX001 (ip), vehicle: carboxymethylcellulose (CMC) 95 % of control and 100 % of control | endpoint: mean survival time, dose: 125.0 mg/kg/injection, schedule: Q01DX001 (ip), vehicle: methylcellulose (MC) 105 % of control and 108 % of control | endpoint: mean survival time, dose: 150.0 mg/kg/injection, schedule: Q03DX Z (ip), vehicle: saline 101 % of control | endpoint: mean survival time, dose: 180.0 mg/kg/injection, schedule: Q01DX001 (ip), vehicle: carboxymethylcellulose (CMC) 102 % of control and 106 % of control | endpoint: mean survival time, dose: 200.0 mg/kg/injection, schedule: Q01DX006 (iv), vehicle: saline 97 % of control | [3] 97 % of control and 100 % of control | endpoint: mean survival time, dose: 200.0 mg/kg/injection, schedule: Q01DX010 (ip), vehicle: saline 105 % of control | endpoint: mean survival time, dose: 200.0 mg/kg/injection, schedule: Q01DX Z (im), vehicle: methylcellulose (MC) 102 % of control | endpoint: mean survival time, dose: 200.0 mg/kg/injection, schedule: Q01DX Z (ip), vehicle: saline 105 % of control | endpoint: mean survival time, dose: 200.0 mg/kg/injection, schedule: Q01DX Z (sc), vehicle: methylcellulose (MC) 112 % of control | endpoint: mean survival time, dose: 250.0 mg/kg/injection, schedule: Q01DX001 (ip), vehicle: methylcellulose (MC) 106 % of control and 108 % of control | endpoint: mean survival time, dose: 270.0 mg/kg/injection, schedule: Q01DX001 (ip), vehicle: carboxymethylcellulose (CMC) 103 % of control and 117 % of control | endpoint: mean survival time, dose: 300.0 mg/kg/injection, schedule: Q03DX Z (ip), vehicle: saline 100 % of control | endpoint: mean survival time, dose: 500.0 mg/kg/injection, schedule: Q01DX001 (ip), vehicle: methylcellulose (MC) 116 % of control | endpoint: mean survival time, dose: 1000.0 mg/kg/injection, schedule: Q01DX001 (ip), vehicle: methylcellulose (MC) 112 % of control | endpoint: median survival time, dose: 25.0 mg/kg/injection, schedule: Q01DX009 (ip), vehicle: saline 100 % of control | endpoint: median survival time, dose: 50.0 mg/kg/injection, schedule: Q01DX009 (ip), vehicle: saline 95 % of control and 106 % of control | endpoint: median survival time, dose: 100.0 mg/kg/injection, schedule: Q01DX009 (ip), vehicle: saline 100 % of control and 106 % of control | endpoint: median survival time, dose: 200.0 mg/kg/injection, schedule: Q01DX009 (ip), vehicle: saline 100 % of control and 115 % of control

CC(CCCCC1NC(=O)NC1C)C(=O)O (stereo not given)
inactive: [4] 95 % of control | [5] 90 % of control | [6] 90 % of control

O=c1[nH]c2cc(F)ccc2o1
inactive: endpoint: mean survival time, dose: 100.0 mg/kg/injection, schedule: Q01DX009 (ip), vehicle: Klucel (hydroxypropylcellulose) (HPC) 103 % of control | endpoint: mean survival time, dose: 100.0 mg/kg/injection, schedule: Q04DX003 (ip), vehicle: Klucel (hydroxypropylcellulose) (HPC) 104 % of control | endpoint: mean survival time, dose: 200.0 mg/kg/injection, schedule: Q01DX009 (ip), vehicle: Klucel (hydroxypropylcellulose) (HPC) 101 % of control | endpoint: mean survival time, dose: 200.0 mg/kg/injection, schedule: Q04DX003 (ip), vehicle: Klucel (hydroxypropylcellulose) (HPC) 103 % of control | endpoint: mean survival time, dose: 400.0 mg/kg/injection, schedule: Q01DX009 (ip), vehicle: Klucel (hydroxypropylcellulose) (HPC) 111 % of control | endpoint: mean survival time, dose: 400.0 mg/kg/injection, schedule: Q04DX003 (ip), vehicle: Klucel (hydroxypropylcellulose) (HPC) 111 % of control

Cc1cc(NS(=O)(=O)c2ccc(N)cc2)no1
inactive: [2] 97 % of control | endpoint: mean survival time, dose: 100.0 mg/kg/injection, schedule: Q04DX003 (ip), vehicle: saline 104 % of control | [3] 94 % of control | endpoint: mean survival time, dose: 200.0 mg/kg/injection, schedule: Q04DX003 (ip), vehicle: saline 99 % of control | endpoint: mean survival time, dose: 400.0 mg/kg/injection, schedule: Q01DX009 (ip), vehicle: saline 96 % of control | endpoint: mean survival time, dose: 400.0 mg/kg/injection, schedule: Q04DX003 (ip), vehicle: saline 114 % of control

OC(CN1CCCCC1)c1ccc2oc3ccccc3c2c1 (stereo not given)
inactive: endpoint: mean survival time, dose: 100.0 mg/kg/injection, schedule: Q04DX002 (ip), vehicle: Klucel (hydroxypropylcellulose) (HPC) 110 % of control | endpoint: mean survival time, dose: 200.0 mg/kg/injection, schedule: Q04DX002 (ip), vehicle: Klucel (hydroxypropylcellulose) (HPC) 92 % of control

O=C1CCCCCC2CC12 (stereo not given)
inactive: endpoint: mean survival time, dose: 100.0 mg/kg/injection, schedule: Q04DX002 (sc), vehicle: olive oil, sesame oil, peanut oil 105 % of control | endpoint: mean survival time, dose: 200.0 mg/kg/injection, schedule: Q04DX002 (sc), vehicle: olive oil, sesame oil, peanut oil 112 % of control | endpoint: mean survival time, dose: 400.0 mg/kg/injection, schedule: Q04DX002 (sc), vehicle: olive oil, sesame oil, peanut oil 109 % of control

O=c1[nH]c2ncccc2c(=O)n1OS(=O)(=O)c1ccccc1
inactive: endpoint: mean survival time, dose: 50.0 mg/kg/injection, schedule: Q01DX001 (ip), vehicle: saline 102 % of control | [1] 98 % of control | [4] 96 % of control | [2] 106 % of control | [5] 93 % of control | [3] 98 % of control | [6] 96 % of control

NC(=O)NC(N)=S
inactive: endpoint: mean survival time, dose: 100.0 mg/kg/injection, schedule: Q04DX003 (ip), vehicle: saline with Tween-80 99 % of control | endpoint: mean survival time, dose: 200.0 mg/kg/injection, schedule: Q04DX003 (ip), vehicle: saline with Tween-80 103 % of control | endpoint: mean survival time, dose: 400.0 mg/kg/injection, schedule: Q04DX003 (ip), vehicle: saline with Tween-80 103 % of control
